Several values for one entry are separate records, joined by “and”; a condition that tells them apart may be missing. Equal entries are not always repeated.
How the values were obtained:
adenovirus = experiment: Inhibition of adenovirus infection in A549 cells in vitro; type: cell-based
From the text: Compound 96 inhibited adenovirus infection 67% in A549 cells in vitro.

varicella-zoster virus = experiment: Inhibition of varicella-zoster virus infection in vitro; type: cell-based
From the text: Compound 96 inhibited varicella-zoster virus infection >98% in vitro.

[1] = tested on: NL-HX-ADA (macrophage-tropic isolate) Virus; experiment: Control infections: untreated NL-HX-ADA virus added to PBMC cultures containing the final dilution of the drug; type: cell-based, Human Immunodeficiency Virus (HIV); details: for Control culture: # infected cells/area (~500 cells) / Control culture: Average # infected cells/area: untreated virus; for Control culture: # infected cells/area (~500 cells): single area counts
Protocol: (§1) After the 1 hr treatment period, the virus-drug solutions were diluted 1:1,000 with complete medium, and then mixed with an equal volume of Peripheral Blood Mononucleocyte (PBMC) cells, for a final dilution of virus and drug of 1:4,000.
(§2) The infected cultures were then incubated without any washing or other changes in media for 4 days (for the M-tropic NL-HX-ADA type) and 8 days (for the T-tropic NL-HX type). The cultures were then assayed for infection using standard fluorescent focus assays to quantitate infected cells.
(§3) Control infections were performed by adding untreated viruses at a p24 concentration of 1 ng/ml into cultures containing the final dilution of the drug. This controlled for any residual effect the diluted drug may have on the health of the PBMC culture and their ability to replicate virus.

[2] = tested on: NL-HX (T cell-tropic isolate) Virus; experiment: Control infections: untreated NL-HX virus added to PBMC cultures containing the final dilution of the drug; type: cell-based, Human Immunodeficiency Virus (HIV); details: for Control culture: # infected cells/area (~500 cells) / Control culture: Average # infected cells/area: untreated virus; for Control culture: # infected cells/area (~500 cells): single area counts
Protocol: as §1, §2, §3

[3] = tested on: NL-HX-ADA (molecularly cloned macrophage-tropic type of HIV-1); experiment: Extended dose response for inactivation of HIV-1 by CTC96, fluorescent focus assay in PBMCs; type: cell-based; details: 1 hour
Protocol: (§4) • Stock virus: NL-HX-ADA ˜5.5 μg/ml p24 (This is a molecularly cloned macrophage-tropic type of HIV-1). Virus was used to infect cells at 1:4,000 final dilution (˜1.4 ng/ml p24). Stock CTC-96: 10 mg/ml prepared directly in RPMI 1640 Method: Concentrated stock solution of virus was treated for 1 hour with equal volume of medium containing the drug at the indicated concentrations (1:2 dilution). The virus/drug mixture was then diluted 1,000-fold (1:2,000 dilution) and then added to an equal volume of PHA-activated humans PBMCs (1:4,000 final dilution) to allow virus replication to occur. The extent of infection was measured after 4 days by a fluorescent focus assay and compared to that of a control culture not containing any drug.

[4] = tested on: NL-HX-ADA (molecularly cloned macrophage-tropic type of HIV-1); experiment: Time course of anti-HIV effect of CTC96 (neutralization vs contact time); type: cell-based
Protocol: as §4
Using similar conditions as described above, virus was incubated with 0.625 mg/ml CTC96 for the indicated time period before 1,000-fold dilution and addition to cells.
Virus was incubated with four different concentrations of CTC96 for the indicated time periods, and then the extent of inactivation tested as previously described. Numbers in parentheses indicate results obtained in the initial analysis for the lowest dose ([…]) of CTC96.

[5] = even at the highest concentration tested (5 μg/ml)
[6] = culture with final dilution of the 0.625 mg/ml (residual 0.3 μg/ml)
[7] = culture with final dilution of the 1.25 mg/ml (residual 0.6 μg/ml)
[8] = culture with final dilution of the 2.5 mg/ml column (residual 1.25 μg/ml)
[9] = culture with final dilution of the 5 mg/ml column (residual 2.5 μg/ml)
[10] = culture with final dilution of the 10 mg/ml column (residual 5 μg/ml)
[11] = final dilution of the 0.625 mg/ml column (residual 0.3 μg/ml)
[12] = final dilution of the 1.25 mg/ml column (residual 0.6 μg/ml)
[13] = final dilution of the 2.5 mg/ml column (residual 1.25 μg/ml)
[14] = final dilution of the 5 mg/ml column (residual 2.5 μg/ml)
[15] = final dilution of the 10 mg/ml column (residual 5 μg/ml)
[16] = [CTC96] 0.625 μg/ml, contact time 2 minutes
[17] = [CTC96] 0.625 μg/ml, contact time 4 minutes
[18] = [CTC96] 0.625 μg/ml, contact time 8 minutes
[19] = [CTC96] 0.625 μg/ml, contact time 16 minutes
[20] = [CTC96] 0.625 μg/ml, contact time 32 minutes
[21] = [CTC96] 0.625 μg/ml, contact time 64 minutes

`CC1=CC(C)=[N+]2CC[N+]3=C(C)C=C(C)[O][Co-4]23([n+]2cc[nH]c2C)([n+]2cc[nH]c2C)[O]1.[Br-]` [Compound 96] was tested, and the inhibited adenovirus infection (adenovirus) was 67%, the “inhibited varicella-zoster virus infection” value (varicella-zoster virus) was > 98% and the “toxicity or inhibition in control cultures receiving the diluted drugs” value [1, 5] was “No toxicity or inhibition”. The “Control culture: # infected cells/area (~500 cells)” value [1, 6] was 17 cells/area and 16 cells/area and 18 cells/area, the “Control culture: # infected cells/area (~500 cells)” value [1, 7] was 16 cells/area and 15 cells/area and 17 cells/area and 18 cells/area and the “Control culture: # infected cells/area (~500 cells)” value [1, 8] was 17 cells/area and 18 cells/area and 15 cells/area and 16 cells/area. The “Control culture: # infected cells/area (~500 cells)” value [1, 9] was 16 cells/area and 17 cells/area and 15 cells/area and 18 cells/area, the “Control culture: # infected cells/area (~500 cells)” value [1, 10] was 15 cells/area and 16 cells/area and 17 cells/area and the “Control culture: Average # infected cells/area” value [1, 11] was 16.50 cells/area. The “Control culture: Average # infected cells/area” value [1, 12] was 16.38 cells/area, the “Control culture: Average # infected cells/area” value [1, 13] was 16.50 cells/area and the “Control culture: Average # infected cells/area” value [1, 14] was 16.25 cells/area. The “Control culture: Average # infected cells/area” value [1, 15] was 16.00 cells/area, the “toxicity or inhibition in control cultures receiving the diluted drugs” value [2, 5] was “No toxicity or inhibition” and the “Control culture: # infected cells/area (~500 cells)” value [2, 6] was 11 cells/area and 10 cells/area. For the same molecule, the “Control culture: # infected cells/area (~500 cells)” value [2, 7] was 9 cells/area and 8 cells/area and 11 cells/area and 10 cells/area, the “Control culture: # infected cells/area (~500 cells)” value [2, 8] was 10 cells/area and 11 cells/area and the “Control culture: # infected cells/area (~500 cells)” value [2, 9] was 10 cells/area and 8 cells/area and 9 cells/area. For the same molecule, the “Control culture: # infected cells/area (~500 cells)” value [2, 10] was 10 cells/area and 9 cells/area and 11 cells/area, the “Control culture: Average # infected cells/area” value [2, 11] was 10.3 cells/area and the “Control culture: Average # infected cells/area” value [2, 12] was 9.5 cells/area. The “Control culture: Average # infected cells/area” value [2, 13] was 10.3 cells/area, the “Control culture: Average # infected cells/area” value [2, 14] was 8.8 cells/area and the “Control culture: Average # infected cells/area” value [2, 15] was 9.8 cells/area. The “% Neutralization” value ([3]; Batch A: [CTC96] during incubation with virus 5 mg/ml (initial 10 mg/ml; after final dilution 2.5 ng/ml)) was 100%, the “% Neutralization” value ([3]; Batch B: [CTC96] during incubation with virus 2.5 mg/ml (initial 5 mg/ml; after final dilution 1.25 ng/ml)) was 100% and the “% Neutralization” value ([3]; Batch C: [CTC96] during incubation with virus 1.25 mg/ml (initial 2.5 mg/ml; after final dilution 0.61 ng/ml)) was 100%. The “% Neutralization” value ([3]; Batch D: [CTC96] during incubation with virus 0.625 mg/ml (initial 1.25 mg/ml; after final dilution 0.31 ng/ml)) was 100%, the “% Neutralization” value ([3]; Batch E: [CTC96] during incubation with virus 0.312 mg/ml (initial 0.6 mg/ml; after final dilution 0.156 ng/ml)) was 83% and the “% Neutralization” value ([3]; Batch F: [CTC96] during incubation with virus 0.156 mg/ml (initial 0.3 mg/ml; after final dilution 0.078 ng/ml)) was 63%. For the same molecule, the “% Neutralization” value ([3]; Batch G: [CTC96] during incubation with virus 0.078 mg/ml (initial 0.156 mg/ml; after final dilution 0.039 ng/ml)) was 55%, the “% Neutralization” value ([3]; Batch H: [CTC96] during incubation with virus 0.039 mg/ml (initial 0.078 mg/ml; after final dilution 0.019 ng/ml)) was 18% and the “% Neutralization” value ([3]; Batch I: [CTC96] during incubation with virus 0.019 mg/ml (initial 0.039 mg/ml; after final dilution 0.009 ng/ml)) was 1%. The “% Neutralization” value ([3]; Batch J: [CTC96] during incubation with virus 0.009 mg/ml (initial 0.019 mg/ml; after final dilution 0.0045 µg/ml)) was 2%, the “% Neutralization” value ([3]; Batch K: [CTC96] during incubation with virus 0.0045 mg/ml (initial 0.009 mg/ml; after final dilution 0.0023 ng/ml)) was 1% and the “% Neutralization” value [4, 16] was 15%. The “% Neutralization” value [4, 17] was 25%, the “% Neutralization” value [4, 18] was 41% and the “% Neutralization” value [4, 19] was 56%. For the same molecule, the “% Neutralization” value [4, 20] was 65%, the “% Neutralization” value [4, 21] was 80% and the “% Neutralization” value ([4]; [CTC96] 1.25 μg/ml, contact time 2 minutes) was 4%. The “% Neutralization” value ([4]; [CTC96] 1.25 μg/ml, contact time 4 minutes) was 17%, the “% Neutralization” value ([4]; [CTC96] 1.25 μg/ml, contact time 8 minutes) was 42% and the “% Neutralization” value ([4]; [CTC96] 1.25 μg/ml, contact time 16 minutes) was 61%. The “% Neutralization” value ([4]; [CTC96] 1.25 μg/ml, contact time 32 minutes) was 78%, the “% Neutralization” value ([4]; [CTC96] 1.25 μg/ml, contact time 64 minutes) was 94% and the “% Neutralization” value ([4]; [CTC96] 2.5 μg/ml, contact time 2 minutes) was 21%. The “% Neutralization” value ([4]; [CTC96] 2.5 μg/ml, contact time 4 minutes) was 25%, the “% Neutralization” value ([4]; [CTC96] 2.5 μg/ml, contact time 8 minutes) was 47% and the “% Neutralization” value ([4]; [CTC96] 2.5 μg/ml, contact time 16 minutes) was 72%. For the same molecule, the “% Neutralization” value ([4]; [CTC96] 2.5 μg/ml, contact time 32 minutes) was 86%, the “% Neutralization” value ([4]; [CTC96] 2.5 μg/ml, contact time 64 minutes) was 100% and the “% Neutralization” value ([4]; [CTC96] 5 μg/ml, contact time 2 minutes) was 37%. For the same molecule, the “% Neutralization” value ([4]; [CTC96] 5 μg/ml, contact time 4 minutes) was 52%, the “% Neutralization” value ([4]; [CTC96] 5 μg/ml, contact time 8 minutes) was 65% and the “% Neutralization” value ([4]; [CTC96] 5 μg/ml, contact time 16 minutes) was 78%. For the same molecule, the “% Neutralization” value ([4]; [CTC96] 5 μg/ml, contact time 32 minutes) was 98%, the “% Neutralization” value ([4]; [CTC96] 5 μg/ml, contact time 64 minutes) was 100% and the “% Neutralization (in parentheses: initial analysis)” value [4, 16] was 7%. The “% Neutralization (in parentheses: initial analysis)” value [4, 17] was 43%, the “% Neutralization (in parentheses: initial analysis)” value [4, 18] was 56% and the “% Neutralization (in parentheses: initial analysis)” value [4, 19] was 64%. For the same molecule, the “% Neutralization (in parentheses: initial analysis)” value [4, 20] was 76% and the “% Neutralization (in parentheses: initial analysis)” value [4, 21] was 100%.

— patent US20070259866A1, “Method of Adenovirus, HIV and HPV Prophylaxis” (priority 1999, published 2007)
